Here are results for 1 substance from paper PMC3293837, “Biophysical Property and Broad Anti-HIV Activity of Albuvirtide, a 3-Maleimimidopropionic Acid-Modified Peptide Fusion Inhibitor” (PLoS ONE, 2012).

Read-outs that look alike come from different tables or passages of the source.

For series [1], the system named is HIV-1NL4-3 V38A pseudovirus. The series is classed as cell-based.
Protocol: (§2) HIV-1 pseudoviruses were generated as described previously [32], [55]–[56]. Briefly, 293T cells (5×10^6 cells in 15 ml of growth medium in a T-75 culture flask) were cotransfected with 10 µg of an Env-expressing plasmid and 20 µg of a backbone plasmid pSG3deltaEnv that encodes Env-defective, luciferase-expressing HIV-1 genome using Lipofectamine 2000 reagent (Invitrogen). Pseudovirus-containing culture supernatants were harvested 48 hours after transfection and filtered by 0.45-mm pore size, and stored at −80°C in 1-ml aliquots until use. The 50% tissue culture infectious dose (TCID50) of a single thawed aliquot of each pseudovirus batch was determined in TZM-bl cells. […] Briefly, the peptides were prepared with ten series dilutions in a 3-fold stepwise manner and mixed with 100 TCID50 viruses and incubated 1 hour at room temperature. The mixture was added to TZM-bl cells (10^4/well) and incubation at 37°C for 48 hours. Luciferase activity was measured using luciferase assay regents (Promega, Medison, WI) and a Luminescence Counter (Promega) according to the manufacture's instructions.
Series [2] has as its system HIV-1NL4-3 I37T pseudovirus. The class given is cell-based. As to conditions: HIV-1NL4-3 I37T; TZM-bl, 48 h; mean ± SD of three independent experiments.
Protocol: as §2
The subject of series [3] is HIV-1NL4-3 Env-pseudotyped virus. The class given is cell-based. As to conditions: TZM-bl.
Protocol: as §2
The test system of series [4] is HIV-1NL4-3 Q40H pseudovirus. The series is classed as cell-based. As to conditions: HIV-1NL4-3 Q40H; TZM-bl, 48 h; mean ± SD of three independent experiments.
Protocol: (§3) The mutations were created using double-stranded DNA templates and selection of mutants with DpnI. For each mutation, the two primers contained the desired mutation and occupied the same starting and ending positions on opposite strands of the plasmid DNA. DNA synthesis was carried out by PCR in a 50-µL reaction volume using 1 µL of denatured plasmid template (1 ng/µL), 50 pmol of upper and lower primers and 5 U of high-fidelity thermostable polymerase PrimeStar (Takara, Dalian, China). PCR amplification was carried out for one cycle of denaturation at 98°C for 5 min, then 18 cycles of 98°C for 15 s and 68°C for 15 min, followed a final extension at 72°C for 10 min. The amplicons were treated with the restriction enzyme DpnI for 1 h at 37°C. DpnI-resistant molecules, which were rich in the desired mutants, were recovered by transforming Escherichia coli strain-DH5α to antibiotic resistance. The successful mutations were confirmed by sequencing.
as §2
Series [5] deals with HIV-1NL4-3 I37T/N43K pseudovirus. The series is classed as cell-based. As to conditions: HIV-1NL4-3 I37T/N43K; TZM-bl, 48 h; mean ± SD of three independent experiments.
Protocol: as §3, §2
The subject of series [6] is HIV-1NL4-3 N43K pseudovirus. The series is classed as cell-based. As to conditions: HIV-1NL4-3 N43K; TZM-bl, 48 h; mean ± SD of three independent experiments.
Protocol: as §3, §2
In series [7] the test system is HIV-1NL4-3 V38M pseudovirus. The series is classed as cell-based.
Protocol: as §2
Series [8] concerns N36 (NHR target sequence). As to conditions: complex with N36; CD at 222 nm, 20–90°C, 1°C per min, 1 µM in PBS buffer. On the procedure:
CD spectroscopy was performed as previously described, [26]. […] The final peptide concentration was 10 µM in PBS buffer (pH 7.2). The isolated N- and C-peptides were also tested. The CD spectra of these individual peptides and peptide mixtures were acquired on MOS-450 spectropolarimeter (Bio-Logic, France) using a 1 nm bandwidth with a 1 nm step resolution from 190 to 260 nm at room temperature. The spectra were corrected by subtraction of a blank corresponding to the solvent. Data were averaged over three accumulations. […] Tm value was detected at protein concentration of 1 µM in PBS buffer.

Series [9] concerns N36 (NHR target sequence). Kind of series: CD spectroscopy (C-peptide alone or with N36). As to conditions: PBS pH 7.2, 10 µM (methods), room temperature. The class given is physicochemical, HIV-1. Here is the method: CD spectroscopy was performed as previously described, [26]. […] The isolated N- and C-peptides were also tested. […] Data were averaged over three accumulations.

Series [10] concerns HIV-1NL4-3 D36G pseudovirus. The class given is cell-based.
Protocol: as §2
For series [11], the system named is CH064 pseudovirus (CRF07_BC). The class given is cell-based, HIV-1. As to conditions: R5, TZM-bl, 48 h, triplicate, mean ± SD of at least three independent experiments. The text has this:
(§1) A panel of plasmids encoding HIV-1 Envs were obtained through the AIDS Research and Reference Reagent Program (ARRRP), Division of AIDS, NIAID, NIH, including subtype A Env clones pSVIII-92RW020.5 and 92UG037.8 from Dr. B.H. Hahn; subtype B Env clones SC422661.8, TRO.11 and AC10.0.29 from Drs. D. Montefiori, F. Gao and M. Li, pRHPA4259.7 and pREJO4541.67 from Drs. B.H. Hahn and J.F. Salazar-Gonzalez, and pCAAN5342.A2 from Drs. B.H. Hahn and D.L. Kothe; subtype C Env clones Du172.17 and Du422.1 from Drs. D. Montefiori, F. Gao, S. Abdool Karim and G. Ramjee, CAP45.2.00.G3 from Drs. L. Morris, K. Mlisana and D. Montefiori, ZM197M.PB7 from Drs. B.H. Hahn, Y. Li and J.F. Salazar-Gonzalez, ZM109F.PB4 from Drs. E. Hunter and C. Derdeyn. Six CRF07_BC Env clones (CH064.20, CH070.1, CH091.9, CH110.2, CH119.10 and CH120.6) were generous gifts by Dr. Y. Shao in the Chinese Center for Disease Control and Prevention, Beijing, China. A panel of Env clones derived from subtype B′ (B01, B02, B04, and 43-22), CRF01_AE (SHX335.24, YN192.31, AE01, AE03, GX2010.36, GX11.13, GX2010.36H, BJ5.11), and CRF07_BC (BC02, BC03, BC05, BC07, BC14, SC19-15, BJ22-5, YN148R-9, XJ50-6, HB5-3) were kindly provided by Dr. Y. Wang from the National Institute for the Control of Pharmaceutical and Biological Products, Beijing, China.

The subject of series [12] is SF162.LS pseudovirus (subtype B). The class given is cell-based, HIV-1. As to conditions: R5, TZM-bl, 48 h, triplicate, mean ± SD of three independent experiments.
Source text: as §1

For series [13], the system named is 43-22 pseudovirus (subtype B′). The series is classed as cell-based, HIV-1. As to conditions: 43-22, B′, R5; TZM-bl, 48 h; triplicate, mean ± SD of at least three independent experiments.
Source text: as §1

Series [14] relates to T20-resistant HIV-1NL4-3 variants. As to conditions: HIV-1NL4-3 with single or double gp41 mutations. On the procedure: Luciferase activity was measured using luciferase assay regents (Promega, Medison, WI) and a Luminescence Counter (Promega) according to the manufacture's instructions.
In series [15] the test system is HIV-1NL4-3 I37V/V38T infectious molecular clone. The class given is cell-based.
Protocol: (§4) The mutant viruses were generated by transient transfection of NL4-3 plasmids into 293T cells. The virus stocks were harvested 48 hours post-transfection and quantified for TCID50. […] In brief, 100 TCID50 viruses were used to infect TZM-bl cells in the presence or absence of serially diluted peptides. Two days post-infection, the cells were harvested and lysed in reporter lysis buffer, and the luciferase activity was measured. The IC50 was calculated as described above using GraphPad Prism software (GraphPad Prism software Inc., San Diego, CA).
The test system of series [16] is HIV-1NL4-3 L33S infectious molecular clone. The class given is cell-based.
Protocol: as §4
Setting [17] is: infectious molecular clone, T20 up to 750 nM.

The term IC50 denotes the midpoint of a concentration-inhibition curve.

enfuvirtide: the IC50 in series [1] (HIV-1NL4-3 V38A, TZM-bl, 48 h, mean ± SD of three independent experiments) is 1260 ± 182 nM; in series [2], 300 ± 55.1 nM; in series [3] (Fig. 5A, 100 TCID50, 48 h 37°C, luciferase, mean, three independent experiments, read-out: mean IC50, virus entry), 70.7 nM; in series [3] (HIV-1NL4-3 WT pseudovirus, Table 3, 48 h, mean ± SD of three independent experiments, read-out: IC50), 62.5 ± 11.9 nM; in series [4], 731 ± 35.2 nM; in series [5], over 3000 nM. The IC50 in series [6] came out at 262 ± 44.4 nM; in series [7] (HIV-1NL4-3 V38M, TZM-bl, 48 h, mean ± SD of three independent experiments) it was 646 ± 57.7 nM; in [10] (HIV-1NL4-3 D36G, TZM-bl, 48 h, mean ± SD of three independent experiments), 7.5 ± 1.3 nM; in [11] it was 61.7 ± 12.5 nM; in series [12], 43.5 ± 9.16 nM; in [13], 12.1 ± 3.24 nM. The IC50 in series [15] (I37V/V38T infectious molecular clone of HIV-1NL4-3, TZM-bl, 100 TCID50, two days, mean ± SD of three independent experiments) is over 750 nM; in series [16] (L33S infectious molecular clone of HIV-1NL4-3, TZM-bl, 100 TCID50, two days, mean ± SD of three independent experiments), over 750 nM. Besides, the “resistance change with V38A (in words)” value in series [1] (V38A single mutation) is reported as “high-fold resistance changes”. Besides, the “resistance change with V38M (in words)” value in series [7] (V38M single mutation) is “high-fold resistance changes”. Besides, the “Tm of C-peptide/N36 complex” value in [8] is listed as “undetectable”. The “CD spectrum / α-helicity with N36” value in [9] (equimolar N36, 37°C 30 min, 222 nm) is recorded as “could not form a typical α-helical complex with N36”. For the same substance, the “CD spectrum / α-helical conformation of C-peptide alone” value in series [9] (peptide alone, 190-260 nm) is given as “minimum α-helical conformation”. In [10] (D36G relative to WT HIV-1NL4-3), the “increase in sensitivity of D36G mutant” value was determined as 8.3 fold. Moreover, in [14], the “activity on T20-resistant variants (in words)” value is “high level resistance”. In addition, in series [15] (setting [17]), the “inhibitory activity on I37V/V38T virus (in words)” value was “no any inhibitory activity at a concentration up to 750 nM”. Moreover, the “inhibitory activity on L33S virus (in words)” value in [16] (setting [17]) is recorded as “no any inhibitory activity at a concentration up to 750 nM”.
